Reference: article PMC10331583, “Control of fibrosis with enhanced safety via asymmetric inhibition of prolyl‐tRNA synthetase 1” (EMBO Molecular Medicine, 2023)
“And” between values parts separate entries of the source, which are not always exact repeats. Equal values may be shown once.

Experiments:
PARS1 = molecular target: T1, PARS1 (Homo sapiens, UniProt P07814); assay: In vitro prolylation assay; type: biochemical
T1 construct: His‐PARS1 (1001–1,512 aa); His; made in house; host or cells: Escherichia coli
T1 sequence (P07814 1001-1512 limits assumed): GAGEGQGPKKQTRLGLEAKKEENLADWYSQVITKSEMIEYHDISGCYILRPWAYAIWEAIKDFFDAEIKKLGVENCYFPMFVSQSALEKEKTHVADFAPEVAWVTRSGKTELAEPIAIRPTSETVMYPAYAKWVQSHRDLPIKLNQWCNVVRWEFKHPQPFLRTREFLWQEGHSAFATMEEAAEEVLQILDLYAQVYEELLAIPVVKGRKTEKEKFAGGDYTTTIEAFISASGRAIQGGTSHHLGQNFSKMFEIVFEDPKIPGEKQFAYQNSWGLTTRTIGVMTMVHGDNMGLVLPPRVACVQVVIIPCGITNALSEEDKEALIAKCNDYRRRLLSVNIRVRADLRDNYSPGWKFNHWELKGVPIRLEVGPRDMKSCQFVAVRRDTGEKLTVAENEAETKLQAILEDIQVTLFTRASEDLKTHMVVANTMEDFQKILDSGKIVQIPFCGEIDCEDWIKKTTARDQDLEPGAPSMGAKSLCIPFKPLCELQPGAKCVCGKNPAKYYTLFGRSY
Experimental: The enzyme reaction was initiated by the addition of 100 nM purified His‐PARS1 (1001–1,512 aa). After 5 min, the reaction mixture was quenched on Whatman filter paper presoaked with 5% trichloroacetic acid (TCA). The filter papers were washed three times in 5% TCA for 10 min at 4°C and once in 100% ethanol for 10 min. The filter papers were dried, and radioactivity was quantified using liquid scintillation counter (LSC).
After 1 h, the reaction mixture was quenched on Whatman filter paper presoaked with 5% TCA. The filter papers were washed three times in 5% TCA for 10 min at 4°C and once in 100% ethanol for 10 min. The filter papers were dried, and radioactivity was quantified using LSC.

[1] = tested on: WI‐26 VA4 cells stably expressing EV (empty vector); assay: Collagen ELISA in cells stably expressing EV; settings: for Collagen level, average: average of 4 experiments; for Collagen level, single replicates: replicates of Experiments #1-#4
ICR (CrljOri: CD1) mice = assay: Two‐week repeated‐dose toxicity study, HF versus DWN12088; type: in vivo
Experimental: (§1) To compare the in vivo toxicity of HF and DWN12088, all experiments were conducted following the international guidelines on the ethical use of experimental animals and approved by the Institutional Animal Care and Use Committee of KNOTUS (KNOTUS IACUC 21‐KE‐250 and KNOTUS IACUC 21‐KE‐359). ICR (CrljOri: CD1) mice (7‐week‐old, male, obtained from Koatech) were randomized (n = 6 for each group) and then orally administered with the indicated amounts of HF or DWN12088 once daily for 2 weeks. In the high‐dose group, the dose of DWN12088 was reduced from 120 mg/kg to 90 mg/kg from day 6. […] Body weight was measured at day 1, 2, 3, 4, 5, 8, 14, and 15.
(§2) After administering the drugs for 2 weeks, mice were fasted overnight and anesthetized with isoflurane. Blood samples were collected in EDTA‐coated tubes, and the following parameters were determined using a hematology analyzer (ADVIA 2120, SIEMENS, USA); red blood cell, platelet count, hematocrit, white blood cell, red cell distribution width, hemoglobin concentration distribution width, hemoglobin concentration, neutrophil, mean corpuscular volume, lymphocyte, mean cell hemoglobin, monocyte, mean cell hemoglobin concentration, eosinophil, mean platelet volume, basophil, reticulocytes, and large unstained cells.
(§3) For clinical chemistry, the remaining blood samples were incubated in a vacutainer tube with clot activator and then centrifuged to prepare serum. The following parameters were measured in the serum using a chemistry analyzer (7180, Hitachi, Japan) and electrolyte analyzer (AVL 9180, Roche, Switzerland); aspartate aminotransferase, albumin, alanine aminotransferase, albumin/globulin ratio, alkaline phosphatase, blood urea nitrogen, creatine phosphokinase, creatinine, total bilirubin, inorganic phosphorus, glucose, calcium, total cholesterol, sodium, triglyceride, potassium, total protein, and chloride.
(§4) After blood collection, blood was drained by incising the abdominal aorta and posterior vena cava, and all organs of the skin, brain, thoracic cavity, and abdominal cavity were observed. The relative weights of the lung, spleen, liver, heart, kidney, thymus, and testes were calculated by dividing the weight of each organ by the body weight. The experiments were conducted as non‐blind test.

[2] = as above; type: in vivo, mice; settings: male, ICR (CrljOri: CD1), mouse, in vivo; oral once daily for 2 weeks, ICR mice
Experimental: as §1, §2, §3, §4

SMILES: O=C(CC1NCCCC1O)Cn1cnc2cc(Br)c(Cl)cc2c1=O (centres unmarked) [HF, Halofuginone, reference compound]
- IC50 (PARS1; IC50, 1 μM Pro, 5 mM ATP): 24.5 nM
- IC50 (PARS1; IC50, 10 μM Pro, 5 mM ATP): 46.2 nM
- IC50 (PARS1; IC50, 100 μM Pro, 2.5 mM ATP): 137 nM
- IC50 (PARS1; IC50, 100 μM Pro, 5 mM ATP): 103 nM
- IC50 (PARS1; IC50, 100 μM Pro, 10 mM ATP): 101 nM
- mode of PARS1 inhibition (PARS1; IC50 at different proline and ATP concentrations): proline‐competitive and ATP‐uncompetitive
- IC50 ([1]; Homo sapiens, WI26VA4, read-out: IC50, collagen level): 15.2 nM
- Collagen level, average ([1]; WI-26 VA4 EV, 0.3 nM): 105.43 % of control
- Collagen level, single replicates ([1]; WI-26 VA4 EV, 0.3 nM): 107.71 % of control and 102.31 % of control and 99.56 % of control and 107.96 % of control and 119.37 % of control and 97.79 % of control and 105.72 % of control and 112.41 % of control and 97.00 % of control and 105.68 % of control and 103.25 % of control
- Collagen level, average ([1]; WI-26 VA4 EV, 1 nM): 98.88 % of control
- Collagen level, single replicates ([1]; WI-26 VA4 EV, 1 nM): 99.81 % of control and 96.49 % of control and 94.72 % of control and 113.88 % of control and 89.98 % of control and 98.97 % of control and 99.45 % of control and 90.47 % of control and 100.22 % of control and 101.63 % of control and 90.65 % of control and 110.29 % of control
- Collagen level, average ([1]; WI-26 VA4 EV, 3 nM): 98.91 % of control
- Collagen level, single replicates ([1]; WI-26 VA4 EV, 3 nM): 95.48 % of control and 110.90 % of control and 101.31 % of control and 98.76 % of control and 84.68 % of control and 101.40 % of control and 94.43 % of control and 83.51 % of control and 102.77 % of control and 119.57 % of control and 100.02 % of control and 94.04 % of control
- Collagen level, average ([1]; WI-26 VA4 EV, 10 nM): 67.80 % of control
- Collagen level, single replicates ([1]; WI-26 VA4 EV, 10 nM): 70.56 % of control and 73.60 % of control and 52.16 % of control and 80.52 % of control and 55.32 % of control and 68.13 % of control and 71.03 % of control and 51.88 % of control and 67.22 % of control and 78.89 % of control and 53.10 % of control and 91.18 % of control
- Collagen level, average ([1]; WI-26 VA4 EV, 30 nM): 31.49 % of control
- Collagen level, single replicates ([1]; WI-26 VA4 EV, 30 nM): 29.59 % of control and 29.66 % of control and 28.02 % of control and 34.01 % of control and 34.11 % of control and 31.81 % of control and 31.01 % of control and 33.29 % of control and 33.04 % of control and 33.86 % of control and 29.96 % of control and 29.53 % of control
- Collagen level, average ([1]; WI-26 VA4 EV, 100 nM): 6.34 % of control
- Collagen level, single replicates ([1]; WI-26 VA4 EV, 100 nM): 7.42 % of control and 5.23 % of control and 5.03 % of control and 5.46 % of control and 5.70 % of control and 6.01 % of control and 7.87 % of control and 7.08 % of control and 6.26 % of control and 7.39 % of control and 6.77 % of control and 5.82 % of control
- Collagen level, average ([1]; WI-26 VA4 EV, 300 nM): 4.49 % of control
- Collagen level, single replicates ([1]; WI-26 VA4 EV, 300 nM): 4.87 % of control and 3.68 % of control and 2.38 % of control and 3.50 % of control and 4.00 % of control and 5.84 % of control and 5.04 % of control and 4.31 % of control and 5.22 % of control and 6.88 % of control and 2.82 % of control and 5.35 % of control
- Collagen level, average ([1]; WI-26 VA4 EV, 1000 nM): 5.68 % of control
- Collagen level, single replicates ([1]; WI-26 VA4 EV, 1000 nM): 6.31 % of control and 4.51 % of control and 4.24 % of control and 5.46 % of control and 6.24 % of control and 6.40 % of control and 5.99 % of control and 5.56 % of control and 5.73 % of control and 6.61 % of control and 4.97 % of control and 6.15 % of control
- HillSlope, collagen level ([1]; WI-26 VA4 EV, four-parameter fit): -1.549
- LogIC50, collagen level ([1]; WI-26 VA4 EV, log of concentration in nM, four-parameter fit): 1.181
- Mortality: Found dead (ICR (CrljOri: CD1) mice; 1.5 mg/kg oral once daily, 1 animal on day 5, 2 on day 6): Found dead: 3/6 (1 animal on day 5, 2 animals on day 6) Terminal sacrifice: 3/6 (on day 6)
- Mortality: Terminal sacrifice (ICR (CrljOri: CD1) mice; 1.5 mg/kg oral once daily, on day 6): Found dead: 3/6 (1 animal on day 5, 2 animals on day 6) Terminal sacrifice: 3/6 (on day 6)
- reduction in body weight (ICR (CrljOri: CD1) mice; mouse, in vivo): > 10%
- NOAEL at 2 weeks [2]: < 0.375 mg/kg
